Some results are limits rather than exact numbers.

In general, IC50 refers to the concentration that inhibits the measured activity by half.

The target in experiment [1] is farnesyl protein transferase (Homo sapiens, UniProt P49354+P49356). Nature of the experiment: FPT IC50 (inhibition of farnesyl protein transferase, in vitro enzyme assay). In kind it is biochemical. As for the experimental part: (§1) FPT IC50 (inhibition of farnesyl protein transferase, in vitro enzyme assay), COS Cell IC50 (Cell-Based Assay), GGPT IC50 (inhibition of geranylgeranyl protein transferase, in vitro enzyme assay), Cell Mat Assay, and anti-tumor activity (in vivo anti-tumor studies) are determined by the assay procedures described in WO 95/10516.

For another experiment, the system named is COS Cell. Nature of the experiment: COS Cell IC50 (Cell-Based Assay). As for the experimental part: as §1

For `O=C(CCC(=O)N1CCC([C@H]2c3ncc(Br)cc3CCc3cc(Cl)cc(Br)c32)CC1)c1ccccc1` [Example 1], the half-inhibitory concentration (IC50) in experiment [1] came out at 21 nM.

Regarding `O=C(C(=O)N1CCC([C@H]2c3ncc(Br)cc3CCc3cc(Cl)cc(Br)c32)CC1)c1ccccc1` [Example 2], in experiment [1], the midpoint of inhibition, the IC50, lay at 65 nM.

As for `CC(=O)CCC(=O)N1CCC([C@H]2c3ncc(Br)cc3CCc3cc(Cl)cc(Br)c32)CC1` [Example 3], the IC50 in the experiment on COS Cell stood at 54 nM; in experiment [1], 3.4 nM.

Regarding `CC(=O)CCCC(=O)N1CCC([C@H]2c3ncc(Br)cc3CCc3cc(Cl)cc(Br)c32)CC1` [Example 4], the IC50 in the experiment on COS Cell came out at 10 nM; in experiment [1] it was 7.6 nM.

In the case of `CC(=O)CC(=O)CCC(=O)N1CCC([C@H]2c3ncc(Br)cc3CCc3cc(Cl)cc(Br)c32)CC1` [Example 5], the IC50 was found to be 175 nM with COS Cell and 9.2 nM in experiment [1].

`CC(=O)C(=O)N1CCC([C@H]2c3ncc(Br)cc3CCc3cc(Cl)cc(Br)c32)CC1` [Example 6] came in with a 50% inhibitory concentration (IC50) in experiment [1] of 46 nM.

The molecule `C/C(CCC(=O)N1CCC([C@H]2c3ncc(Br)cc3CCc3cc(Cl)cc(Br)c32)CC1)=N/O` [Example 7] yielded an IC50 in experiment [1] of 11 nM.

Regarding `C/C(CCC(=O)N1CCC([C@H]2c3ncc(Br)cc3CCc3cc(Cl)cc(Br)c32)CC1)=N\O` [Example 8], the IC50 is 52 nM in the experiment with COS Cell and 4.9 nM in experiment [1].

Molecule `O=C(/C(=N\O)c1ccccc1)N1CCC([C@H]2c3ncc(Br)cc3CCc3cc(Cl)cc(Br)c32)CC1` [Example 9] returned an IC50 in experiment [1] of more than 150 nM.

As to `O=C(CC/C(=N\O)c1ccccc1)N1CCC([C@H]2c3ncc(Br)cc3CCc3cc(Cl)cc(Br)c32)CC1` [Example 10], the IC50 in experiment [1] was determined as 4.7 nM.

Molecule `CO/N=C(\CCC(=O)N1CCC([C@H]2c3ncc(Br)cc3CCc3cc(Cl)cc(Br)c32)CC1)c1ccccc1` [Example 11] yielded an IC50 in experiment [1] of 88 nM.

The molecule `CC(CCC(=O)N1CCC([C@H]2c3ncc(Br)cc3CCc3cc(Cl)cc(Br)c32)CC1)=NNC(N)=O` [Example 12] registered an IC50 in experiment [1] of 9.7 nM.

In experiment [1], `CC(CCC(=O)N1CCC([C@H]2c3ncc(Br)cc3CCc3cc(Cl)cc(Br)c32)CC1)=NNC(=O)C(N)=O` [Example 13] displayed an IC50 of 6.9 nM.

Source of the values: patent publication US5925639A, “Keto amide derivatives useful as farnesyl protein transferase inhibitors” (Schering Corporation, priority 1997, dated 1999).
